# Results: PMC10245146, “CNS4 causes subtype‐specific changes in agonist efficacy and reversal potential of permeant cations in NMDA receptors” (Pharmacology Research & Perspectives, 2023)
# What was measured:
# GluN1/2A NMDA receptors = target: T1, GluN1/2A NMDA receptors (UniProt P35439+Q12879); assay: Current-voltage (I-V) relationship, Xenopus oocytes expressing 1/2A; assay type: cell-based; details: for Difference in reversal potential (∆Erev) between W and WO CNS4 / Difference in reversal potential (∆Erev) between WO and W CNS4: 100 μM CNS4; for Reversal potential (Erev): with 100 μM CNS4
# T1 construct: expressed in transfected cells; host or cells: Xenopus oocytes (cRNA injection)
# Protocol: There are two sets of recording solutions used for the I‐V assay: solutions with normal (1) and low (2) Ca^2+ concentrations. The normal Ca^2+ solutions contained (mM): 115 NaCl, 1 KCl, 1.8 CaCl2, 10 HEPES. PH was adjusted to 7.2. Low calcium solutions contained 0.018 mM CaCl2 and other components were the same as normal Ca^2+ solution. To study the effects of CNS4 in the absence of extracellular Na^+, NaCl was replaced with impermeable agent, N‐methyl‐D‐glucamine (NMDG, […]). HCl was used to dissolve the NMDG and to adjust the PH to 7.2. NMDG‐containing solutions are termed Nafree. […] There were four different agonist solutions used for each set of Ca^2+ recordings: (1) Agonist, (2) Agonist+CNS4, (3) Agonist in Nafree solution, (4) Agonist+CNS4 in Nafree solution. Each solution was applied to the oocytes in sequential order and the same order was followed for all I‐V recordings. Low Ca^2+ experiments were carried out in the same way as normal Ca^2+ experiments, except that they had 0.018 mM Ca^2+ in all four agonist and recording solutions. Steady state current responses evoked by these solutions at each voltage step were measured. Reversal potentials (Erev) were obtained from x‐intercept values when y = 0 after fitting the I‐V data using a third order polynomial, non‐linear curve fitting equation Y=B0+B1^*X+B2^*X^2+B3^*X^3 . Erev obtained from each oocyte with different agonists were compared in a pairwise manner. These differences were then averaged. Paired or unpaired student t‐test was performed to compare the data as mentioned in each figure legend.
# FIGURE 5 Effect on CNS4 on agonist induced current directions in 1/2A receptors. Current –Voltage (I‐V) relationship of 1/2A receptors was studied with normal (A) and low (B) CaCl2 containing extracellular solutions. […] (C) Comparison of reversal potentials values. Dark and light blue circles indicate normal and low CaCl2 experiments, respectively. Dark and light red squares indicate equivalent I‐V experiments with NMDG (Nafree). Dotted and thick lines denote the absence (empty circles or squares) and presence (filled circles or squares) of 100 μM CNS4, respectively. Traces (Ai&ii, Bi&ii) represent the current response at −90 mv. N = 5 (5) & n = 7(7) for normal & low Ca^2+ assays, respectively. Erev obtained from each oocyte with different agonists were compared in a pairwise manner. Paired student t‐test was performed to compare the data presented at Ci. Unpaired student's t‐test was performed to compare the difference in reversal potentials (triangles). *p < .05, **p < .01, ***p < .001, […].
# GluN1/2C NMDA receptors = target: T2, GluN1/2C NMDA receptors (UniProt P35439+Q14957); assay: TEVC agonist dose-response, Xenopus oocytes expressing 1/2C; assay type: cell-based
# T2 construct: host or cells: Xenopus oocytes (cRNA injection)
# Text: NMDA receptor constructs: cDNA encoding the NMDA receptor1a subunit (GluN1a) was obtained from Dr. Nakanishi (Kyoto, Japan). cDNA encoding the GluN2B (pci_sepGluN2B), originally developed in the Malinow lab,[33] was purchased from Addgene (cat# 23998), Cambridge, MA. cDNA encoding the GluN2C and GluN2D were purchased from GenScript, New Jersey, USA. Mutated GluN1, 2A and 2B cDNA constructs capable of assembling as GluN1/2A/2B triheteromeric (1/2AB) receptors[34] were obtained from Dr. Paoletti (Laboratoire de Neurobiologie, CNRS). These constructs have been previously tested for 1/2AB receptor activity of GluN1/2A receptor‐selective potentiators.[35] […] Plasmids were linearized with NotI (GluN1a and all five GluN1 mutants) or Avrll (GluN2B), or BstB1 (GluN2C and GluN2D) and transcribed in vitro with T7 (GluN1a, GluN1/2A, GluN2B, GluN2C & GluN2D), and SP6 (GluN1 mutants) RNA polymerase using the mMessage mMachine transcription kits (Invitrogen by Thermo Fisher Scientific).
# Stage IV frog oocytes were obtained from Xenopus‐I, (Ann Arbor, MI, USA). NMDA receptor subunit cRNAs were suspended in nuclease free sterile water. GluN1A, GluN2B, GluN2C, GluN2D and GluN1/2A/2B cRNAs were mixed in a ratio of 1:1–3. 50 nL of the final cRNA mixture was microinjected (40–70 ng total) into the oocyte cytoplasm. Oocytes were incubated in ND‐96 solution at 18°C prior to electrophysiological recordings (2–5 days).
# Electrophysiological responses were measured using a standard two‐microelectrode voltage‐clamp workstation (Warner Instruments model OC‐725C) designed to provide a fast clamp of large cells. The recording buffer contained 116 mM NaCl, 2 mM KCl, 0.3 mM BaCl2, and 5 mM HEPES, pH 7.4. Response magnitude was determined in Xenopus oocytes expressing different NMDA receptor subunits (GluN1/2A, 1/2B, 1/2C, 1/2D, and 1/2A/2B) by the steady plateau response elicited by bath application of different agonist concentrations. […] All data points were obtained from the steady state currents unless stated otherwise. Dose–response relationships were fit to an appropriate curve‐fitting equation using GraphPad Prism‐7. Non‐linear regression was used to calculate EC50, IC50, and fold change or percentage maximal response. Curves were fit using the following equations as performed in the previous studies, [37]: Y=100/1+10^LogEC50−XorY=Bottom+Top−Bottom/1+10^LogEC50−X . Statistical significance was determined at the overall alpha level 0.05, using appropriate statistical methods as described in all figure captions. Technical and biological replicates are explicitly mentioned in each figure legend, as n = X (Y). X represents technical repeats (number of traces) and Y represents biological repeats (number of oocytes or HEK293T cells studied). […]
# T2 sequence (Q14957 20-1233, other chains not shown): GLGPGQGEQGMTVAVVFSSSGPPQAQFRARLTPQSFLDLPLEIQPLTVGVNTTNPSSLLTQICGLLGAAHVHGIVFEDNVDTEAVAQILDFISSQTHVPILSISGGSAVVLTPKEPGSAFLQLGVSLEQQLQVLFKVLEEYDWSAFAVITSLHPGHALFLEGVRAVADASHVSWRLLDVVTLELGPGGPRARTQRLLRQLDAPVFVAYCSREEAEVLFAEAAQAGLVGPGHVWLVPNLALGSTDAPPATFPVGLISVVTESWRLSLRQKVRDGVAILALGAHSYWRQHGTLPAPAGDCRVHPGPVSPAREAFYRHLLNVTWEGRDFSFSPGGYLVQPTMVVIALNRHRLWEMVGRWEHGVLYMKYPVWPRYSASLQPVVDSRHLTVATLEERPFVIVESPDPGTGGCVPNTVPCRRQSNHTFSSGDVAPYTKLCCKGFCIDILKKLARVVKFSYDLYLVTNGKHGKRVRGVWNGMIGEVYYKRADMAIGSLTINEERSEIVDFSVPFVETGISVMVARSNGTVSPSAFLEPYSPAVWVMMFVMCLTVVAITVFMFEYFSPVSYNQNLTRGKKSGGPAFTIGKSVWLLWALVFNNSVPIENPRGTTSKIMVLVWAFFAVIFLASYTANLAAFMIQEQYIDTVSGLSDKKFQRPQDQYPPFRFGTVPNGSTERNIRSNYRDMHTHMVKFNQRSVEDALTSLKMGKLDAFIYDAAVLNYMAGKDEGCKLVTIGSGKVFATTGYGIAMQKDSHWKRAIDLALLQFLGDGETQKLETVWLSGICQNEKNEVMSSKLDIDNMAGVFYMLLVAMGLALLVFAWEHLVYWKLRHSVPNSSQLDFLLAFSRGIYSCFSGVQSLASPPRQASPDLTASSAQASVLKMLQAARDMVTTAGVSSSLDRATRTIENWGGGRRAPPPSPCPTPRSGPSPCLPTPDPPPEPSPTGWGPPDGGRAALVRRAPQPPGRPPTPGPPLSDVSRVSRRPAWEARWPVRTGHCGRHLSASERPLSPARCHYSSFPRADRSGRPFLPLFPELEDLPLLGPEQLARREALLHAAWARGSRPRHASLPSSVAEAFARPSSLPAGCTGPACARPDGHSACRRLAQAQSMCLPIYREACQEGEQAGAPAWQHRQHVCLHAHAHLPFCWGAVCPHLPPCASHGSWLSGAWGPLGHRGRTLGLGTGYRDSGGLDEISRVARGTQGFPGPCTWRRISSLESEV
# T1 sequence (Q12879 23-1464, other chains not shown): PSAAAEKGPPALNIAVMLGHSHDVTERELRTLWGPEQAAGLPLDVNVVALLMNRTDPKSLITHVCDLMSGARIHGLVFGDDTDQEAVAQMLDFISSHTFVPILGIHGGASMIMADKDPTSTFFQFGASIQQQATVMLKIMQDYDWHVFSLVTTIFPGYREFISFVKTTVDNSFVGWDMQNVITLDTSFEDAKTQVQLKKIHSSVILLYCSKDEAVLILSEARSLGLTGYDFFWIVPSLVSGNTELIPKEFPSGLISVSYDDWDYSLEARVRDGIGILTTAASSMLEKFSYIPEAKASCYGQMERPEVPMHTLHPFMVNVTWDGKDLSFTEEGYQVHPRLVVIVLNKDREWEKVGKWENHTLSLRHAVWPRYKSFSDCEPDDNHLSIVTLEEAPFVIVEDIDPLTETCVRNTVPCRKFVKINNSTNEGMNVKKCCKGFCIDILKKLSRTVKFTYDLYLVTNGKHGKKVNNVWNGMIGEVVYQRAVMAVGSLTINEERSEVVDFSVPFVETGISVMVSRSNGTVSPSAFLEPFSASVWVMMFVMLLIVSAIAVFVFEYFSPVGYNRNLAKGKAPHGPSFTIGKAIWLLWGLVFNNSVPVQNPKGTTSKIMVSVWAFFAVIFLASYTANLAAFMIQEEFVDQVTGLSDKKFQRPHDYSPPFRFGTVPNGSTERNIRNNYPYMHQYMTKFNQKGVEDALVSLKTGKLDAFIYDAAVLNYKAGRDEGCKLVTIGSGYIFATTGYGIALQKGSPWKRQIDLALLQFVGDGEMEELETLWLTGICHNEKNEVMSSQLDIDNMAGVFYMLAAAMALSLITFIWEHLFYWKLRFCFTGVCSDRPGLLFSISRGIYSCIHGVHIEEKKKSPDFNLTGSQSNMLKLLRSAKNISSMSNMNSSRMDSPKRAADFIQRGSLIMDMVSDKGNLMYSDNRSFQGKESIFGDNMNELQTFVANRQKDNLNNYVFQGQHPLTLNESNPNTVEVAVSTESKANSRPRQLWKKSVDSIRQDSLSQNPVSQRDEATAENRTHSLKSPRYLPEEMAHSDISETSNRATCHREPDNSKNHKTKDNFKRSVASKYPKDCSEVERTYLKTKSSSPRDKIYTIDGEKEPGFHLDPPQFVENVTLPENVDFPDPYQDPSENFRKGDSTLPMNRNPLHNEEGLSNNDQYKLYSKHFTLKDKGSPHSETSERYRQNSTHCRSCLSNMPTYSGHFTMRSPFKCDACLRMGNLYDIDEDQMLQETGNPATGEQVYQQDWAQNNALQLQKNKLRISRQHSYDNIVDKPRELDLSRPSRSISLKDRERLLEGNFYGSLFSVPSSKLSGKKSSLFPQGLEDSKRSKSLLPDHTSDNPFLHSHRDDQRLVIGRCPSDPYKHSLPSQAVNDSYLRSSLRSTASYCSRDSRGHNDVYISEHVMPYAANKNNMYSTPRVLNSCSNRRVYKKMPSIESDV
structure (smiles),measurement,setting,value
O=C(NC(=S)N1CCCCC1c1cccnc1)c1ccc(F)cc1 (centres unmarked) [CNS4],Difference in reversal potential (∆Erev) between W and WO CNS4,"GluN1/2A NMDA receptors; low Ca2+, Nafree, n = 7",−7.32 ± 3.95 mV
same,Difference in reversal potential (∆Erev) between W and WO CNS4,"GluN1/2A NMDA receptors; low Ca2+, with Na+, n = 6",8.76 ± 3.15 mV
same,Difference in reversal potential (∆Erev) between WO and W CNS4,"GluN1/2A NMDA receptors; normal Ca2+, Nafree, n = 3",−6.79 ± 1.98 mV
same,Difference in reversal potential (∆Erev) between WO and W CNS4,"GluN1/2A NMDA receptors; normal Ca2+, with Na+, n = 4",24.85 ± 3.26 mV
same,Reversal potential (Erev),"GluN1/2A NMDA receptors; 1.8 mM (normal) Ca2+, with Na+, 100 μM glutamate + glycine, without CNS4 −12.05 ± 8.18, p = .004",10.49 ± 8.23 mV
same,Reversal potential (Erev),"GluN1/2A NMDA receptors; low Ca2+, Nafree, without CNS4 −61.38 ± 3.99, p = .113",−68.71 ± 4.82 mV
same,Reversal potential (Erev),"GluN1/2A NMDA receptors; normal Ca2+, Nafree (NMDG), without CNS4 −18.16 ± 5.09, p = .16",−32.93 ± 7.03 mV
same,Increase in glycine efficacy with vs without CNS4,GluN1/2C NMDA receptors; 30 μM CNS4,1.8 fold
same,Reduction in glutamate efficacy with vs without CNS4,GluN1/2C NMDA receptors; 30 μM CNS4,2.1 fold
same,Glycine efficacy: relative fold change in current at highest glycine concentration,"GluN1/2C NMDA receptors; with 30 μM CNS4, 100 μM glutamate constant, relative to 100 nM glycine, p = .0015",1.77 ± 0.20 fold
same,Glutamate efficacy: relative fold change in current at highest glutamate concentration,"GluN1/2C NMDA receptors; with 30 μM CNS4, 100 μM glycine constant, relative to 100 nM glutamate, p = .0001",3.93 ± 0.43 fold
